According to PubChem BioAssay (NCI):
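Protocol summary: plate cells (96-well), add compound at 5 concentrations, incubate 48 h, interpolate endpoints linearly. Abbreviation: GI50, concentration required for 50% inhibition of growth. Definition used: TGI = concentration required for complete inhibition of growth.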

Assays:
Experiment in all cases: growth of human tumour cells (NCI), 48 h
HT29 colon = system: HT29 colon
NCI-H226 lung = system: NCI-H226 lung
A549 NSCLC = system: A549 NSCLC
MDA-MB-231 breast = system: MDA-MB-231 breast
UACC-62 melanoma = system: UACC-62 melanoma
NCI-H23 lung = system: NCI-H23 lung
786-0 renal = system: 786-0 renal
MALME-3M melanoma = system: MALME-3M melanoma
UO-31 renal = system: UO-31 renal
SN12C renal = system: SN12C renal
A498 renal = system: A498 renal
BT-549 breast = system: BT-549 breast
MDA-MB-435 = system: MDA-MB-435
ACHN renal = system: ACHN renal
DU-145 prostate = system: DU-145 prostate
NCI/ADR-RES ovarian = system: NCI/ADR-RES ovarian
SNB-19 CNS = system: SNB-19 CNS
KM12 colon = system: KM12 colon
UACC-257 melanoma = system: UACC-257 melanoma
SK-MEL-2 melanoma = system: SK-MEL-2 melanoma
OVCAR-8 ovarian = system: OVCAR-8 ovarian
SW-620 colon = system: SW-620 colon
PC-3 prostate = system: PC-3 prostate
MOLT-4 leukemia = system: MOLT-4 leukemia
RXF 393 renal = system: RXF 393 renal
SF-295 CNS = system: SF-295 CNS
HOP-62 NSCLC = system: HOP-62 NSCLC
OVCAR-3 ovarian = system: OVCAR-3 ovarian
MDA-N = system: MDA-N
CAKI-1 renal = system: CAKI-1 renal
HCT-116 colon = system: HCT-116 colon
CCRF-CEM leukemia = system: CCRF-CEM leukemia
SNB-75 CNS = system: SNB-75 CNS
MCF7 breast = system: MCF7 breast
SR leukemia = system: SR leukemia
U251 CNS = system: U251 CNS
SF-539 CNS = system: SF-539 CNS
OVCAR-4 ovarian = system: OVCAR-4 ovarian
SK-OV-3 ovarian = system: SK-OV-3 ovarian
HS 578T breast = system: HS 578T breast
SK-MEL-5 melanoma = system: SK-MEL-5 melanoma
NCI-H460 lung = system: NCI-H460 lung
SK-MEL-28 melanoma = system: SK-MEL-28 melanoma
HOP-92 NSCLC = system: HOP-92 NSCLC
K-562 leukemia = system: K-562 leukemia
M14 melanoma = system: M14 melanoma
T-47D breast = system: T-47D breast
HCC-2998 colon = system: HCC-2998 colon
HCT-15 colon = system: HCT-15 colon
IGROV1 ovarian = system: IGROV1 ovarian
NCI-H522 lung = system: NCI-H522 lung
OVCAR-5 ovarian = system: OVCAR-5 ovarian
COLO 205 colon = system: COLO 205 colon
SF-268 CNS = system: SF-268 CNS
EKVX NSCLC = system: EKVX NSCLC
TK-10 renal = system: TK-10 renal
RPMI-8226 leukemia = system: RPMI-8226 leukemia
HL-60(TB) leukemia = system: HL-60(TB) leukemia
LOX IMVI melanoma = system: LOX IMVI melanoma

CC(C)C(=O)NCC[C@@H](CNC(=O)OC(C)(C)C)NC(=O)OC(C)(C)C
TGI (HT29 colon): > 100 µM | TGI (NCI-H226 lung): > 100 µM | TGI (A549 NSCLC): > 100 µM | TGI (MDA-MB-231 breast): > 100 µM | TGI (UACC-62 melanoma): > 100 µM | TGI (NCI-H23 lung): > 100 µM | TGI (786-0 renal): > 100 µM | TGI (MALME-3M melanoma): > 100 µM | TGI (UO-31 renal): > 100 µM | TGI (SN12C renal): > 100 µM | TGI (A498 renal): > 100 µM | TGI (BT-549 breast): > 100 µM | TGI (MDA-MB-435): > 100 µM | TGI (ACHN renal): > 100 µM | TGI (DU-145 prostate): > 100 µM | TGI (NCI/ADR-RES ovarian): > 100 µM | TGI (SNB-19 CNS): > 100 µM | TGI (KM12 colon): > 100 µM | TGI (UACC-257 melanoma): > 100 µM | TGI (SK-MEL-2 melanoma): > 100 µM | TGI (OVCAR-8 ovarian): > 100 µM | TGI (SW-620 colon): > 100 µM | TGI (PC-3 prostate): > 100 µM | TGI (MOLT-4 leukemia): > 100 µM | TGI (RXF 393 renal): > 100 µM | TGI (SF-295 CNS): > 100 µM | TGI (HOP-62 NSCLC): > 100 µM | TGI (OVCAR-3 ovarian): > 100 µM | TGI (MDA-N): > 100 µM | TGI (CAKI-1 renal): > 100 µM | TGI (HCT-116 colon): > 100 µM | TGI (CCRF-CEM leukemia): > 100 µM | TGI (SNB-75 CNS): > 100 µM | TGI (MCF7 breast): > 100 µM | TGI (SR leukemia): > 100 µM | TGI (U251 CNS): > 100 µM | TGI (SF-539 CNS): > 100 µM | TGI (OVCAR-4 ovarian): > 100 µM | TGI (SK-OV-3 ovarian): > 100 µM | TGI (HS 578T breast): > 100 µM | TGI (SK-MEL-5 melanoma): > 100 µM | TGI (NCI-H460 lung): > 100 µM | TGI (SK-MEL-28 melanoma): > 100 µM | TGI (HOP-92 NSCLC): > 100 µM | TGI (K-562 leukemia): > 100 µM | TGI (M14 melanoma): > 100 µM | TGI (T-47D breast): > 100 µM | TGI (HCC-2998 colon): > 100 µM | TGI (HCT-15 colon): > 100 µM | TGI (IGROV1 ovarian): > 100 µM | TGI (NCI-H522 lung): > 100 µM | TGI (OVCAR-5 ovarian): > 100 µM | TGI (COLO 205 colon): > 100 µM | TGI (SF-268 CNS): > 100 µM | TGI (EKVX NSCLC): > 100 µM | TGI (TK-10 renal): > 100 µM

CCCCCC[n+]1noc(N)c1-c1ccc(-c2c(N)on[n+]2CCCCCC)cc1
GI50 (HT29 colon): 1.85 µg/mL | TGI (HT29 colon): 4.01 µg/mL | GI50 (NCI-H226 lung): 14.2 µg/mL | TGI (NCI-H226 lung): 28.2 µg/mL | GI50 (A549 NSCLC): 5.25 µg/mL | TGI (A549 NSCLC): 13.9 µg/mL | GI50 (MDA-MB-231 breast): 3.3 µg/mL | TGI (MDA-MB-231 breast): 9.87 µg/mL | GI50 (UACC-62 melanoma): 1.94 µg/mL | TGI (UACC-62 melanoma): 3.51 µg/mL | GI50 (NCI-H23 lung): 14.1 µg/mL | TGI (NCI-H23 lung): 27.9 µg/mL | GI50 (786-0 renal): 1.61 µg/mL | TGI (786-0 renal): 3.32 µg/mL | GI50 (MALME-3M melanoma): 1.81 µg/mL | TGI (MALME-3M melanoma): 3.33 µg/mL | GI50 (UO-31 renal): 1.89 µg/mL | TGI (UO-31 renal): 4.46 µg/mL | GI50 (SN12C renal): 6.2 µg/mL | TGI (SN12C renal): 17.3 µg/mL | GI50 (RPMI-8226 leukemia): 1.98 µg/mL | TGI (RPMI-8226 leukemia): 4.71 µg/mL | GI50 (A498 renal): 6.03 µg/mL | TGI (A498 renal): 16 µg/mL | GI50 (BT-549 breast): 3.83 µg/mL | TGI (BT-549 breast): 14 µg/mL | GI50 (MDA-MB-435): 1.76 µg/mL | TGI (MDA-MB-435): 3.23 µg/mL | GI50 (ACHN renal): 7.74 µg/mL | TGI (ACHN renal): 20.7 µg/mL | GI50 (DU-145 prostate): 9.82 µg/mL | TGI (DU-145 prostate): 24.4 µg/mL | GI50 (NCI/ADR-RES ovarian): 12.5 µg/mL | TGI (NCI/ADR-RES ovarian): 25.6 µg/mL | GI50 (SNB-19 CNS): 9.62 µg/mL | TGI (SNB-19 CNS): 22.8 µg/mL | GI50 (KM12 colon): 3.97 µg/mL | TGI (KM12 colon): 14.6 µg/mL | GI50 (UACC-257 melanoma): 1.73 µg/mL | TGI (UACC-257 melanoma): 3.34 µg/mL | GI50 (SK-MEL-2 melanoma): 1.61 µg/mL | TGI (SK-MEL-2 melanoma): 3.1 µg/mL | GI50 (OVCAR-8 ovarian): 2.6 µg/mL | TGI (OVCAR-8 ovarian): 9.53 µg/mL | GI50 (SW-620 colon): 2.32 µg/mL | TGI (SW-620 colon): 6.14 µg/mL | GI50 (PC-3 prostate): 3.46 µg/mL | TGI (PC-3 prostate): 16.8 µg/mL | GI50 (HL-60(TB) leukemia): 1.61 µg/mL | TGI (HL-60(TB) leukemia): 3.07 µg/mL | GI50 (MOLT-4 leukemia): 2.36 µg/mL | TGI (MOLT-4 leukemia): 7.33 µg/mL | GI50 (LOX IMVI melanoma): 1.95 µg/mL | TGI (LOX IMVI melanoma): 4.21 µg/mL | GI50 (SF-295 CNS): 1.88 µg/mL | TGI (SF-295 CNS): 3.73 µg/mL | GI50 (HOP-62 NSCLC): 7.64 µg/mL | TGI (HOP-62 NSCLC): 20.6 µg/mL | GI50 (OVCAR-3 ovarian): 12.7 µg/mL | TGI (OVCAR-3 ovarian): 26.1 µg/mL | GI50 (MDA-N): 1.78 µg/mL | TGI (MDA-N): 3.48 µg/mL | GI50 (CAKI-1 renal): 2.18 µg/mL | TGI (CAKI-1 renal): 5.22 µg/mL | GI50 (HCT-116 colon): 3.97 µg/mL | TGI (HCT-116 colon): 14.3 µg/mL | GI50 (CCRF-CEM leukemia): 5.09 µg/mL | TGI (CCRF-CEM leukemia): 10.1 µg/mL | GI50 (SNB-75 CNS): 3.41 µg/mL | TGI (SNB-75 CNS): 11.3 µg/mL | GI50 (MCF7 breast): 1.97 µg/mL | TGI (MCF7 breast): 4.1 µg/mL | GI50 (SR leukemia): 1.89 µg/mL | TGI (SR leukemia): 4.87 µg/mL | GI50 (U251 CNS): 1.71 µg/mL | TGI (U251 CNS): 3.47 µg/mL | GI50 (SF-539 CNS): 1.77 µg/mL | TGI (SF-539 CNS): 3.42 µg/mL | GI50 (OVCAR-4 ovarian): 2.62 µg/mL | TGI (OVCAR-4 ovarian): 14.9 µg/mL | GI50 (SK-OV-3 ovarian): 3.37 µg/mL | TGI (SK-OV-3 ovarian): 11 µg/mL | GI50 (HS 578T breast): 2.13 µg/mL | TGI (HS 578T breast): 5.06 µg/mL | GI50 (SK-MEL-5 melanoma): 1.66 µg/mL | TGI (SK-MEL-5 melanoma): 3.04 µg/mL | GI50 (NCI-H460 lung): 2.03 µg/mL | TGI (NCI-H460 lung): 4.7 µg/mL | GI50 (SK-MEL-28 melanoma): 1.69 µg/mL | TGI (SK-MEL-28 melanoma): 3.13 µg/mL | GI50 (HOP-92 NSCLC): 1.09 µg/mL | TGI (HOP-92 NSCLC): 5.91 µg/mL | GI50 (K-562 leukemia): 1.79 µg/mL | TGI (K-562 leukemia): 3.8 µg/mL | GI50 (M14 melanoma): 1.9 µg/mL | TGI (M14 melanoma): 3.43 µg/mL | GI50 (T-47D breast): 2.49 µg/mL | TGI (T-47D breast): 6.28 µg/mL | GI50 (HCC-2998 colon): 1.45 µg/mL | TGI (HCC-2998 colon): 2.79 µg/mL | GI50 (HCT-15 colon): 2.59 µg/mL | TGI (HCT-15 colon): 8.72 µg/mL | GI50 (IGROV1 ovarian): 6.74 µg/mL | TGI (IGROV1 ovarian): 20.4 µg/mL | GI50 (NCI-H522 lung): 1.99 µg/mL | TGI (NCI-H522 lung): 3.69 µg/mL | GI50 (OVCAR-5 ovarian): 5.54 µg/mL | TGI (OVCAR-5 ovarian): 14.6 µg/mL | GI50 (COLO 205 colon): 1.66 µg/mL | TGI (COLO 205 colon): 3.58 µg/mL | GI50 (SF-268 CNS): 7.82 µg/mL | TGI (SF-268 CNS): 22.4 µg/mL | GI50 (EKVX NSCLC): 7.71 µg/mL | TGI (EKVX NSCLC): 23.2 µg/mL | GI50 (TK-10 renal): 2.81 µg/mL | TGI (TK-10 renal): 8.51 µg/mL
